{
  "source": "paper PMC7870626",
  "about": "“Neurotoxicity and underlying cellular changes of 21 mitochondrial respiratory chain inhibitors” (Archives of Toxicology, 2021)",
  "key": {"LUHMES cells": {"test_system": "LUHMES cells", "assay": "NeuroGlycoTest (metabolic glycoengineering, KE3 assay)", "assay_type": "cell-based, human", "conditions": "d6 LUHMES, 6 h", "experimental": "The NeuroGlycoTest was performed as previously described (Kranaster et al. [2020]). In brief, d6 LUHMES cells were co-treated for 6 h with the respiratory chain inhibitors together with 10 µM azide-tagged mannosamine precursor sugar (Ac4ManNAz), synthesized according to published procedures (Saxon et al. [2002]). After PBS-washing, a dibenzylcyclooctyne-PEG4-biotin (DBCO-biotin) [100 μM] (Jena Bioscience, Jena, Germany) solution was added for 20 min at 37 °C to label the incorporated azide-tagged sialic acids (= SiaAz).\nFor detection of MGE-sialoproteins, cells in 6-well plates were lyzed in Laemmli buffer and boiled for 5 min at 95 °C. […] Relative band intensity was quantified using a self-developed image evaluation software. […] At least two blots from independent experiments were quantified.\nFor detection of neurite MGE, cells in 8-well µ-slides were further incubated with a mixture of streptavidin-Alexa Fluor 488 [8 μg/ml] […] The processed images were analyzed using the SUIKER software (Karreman et al. [2019]) that simultaneously, from the same image, detected and quantified viability (based on the Hoechst staining), neurite area (based on the Calcein staining) and neurite MGE sialic acids (based on the streptavidin-Alexa Fluor 488 label). […]"}, "cI": {"test_system": "cI", "design": "method as in van der Stel et al. 2020", "conditions": "liver and kidney cells ref van der Stel et al. 2020; read-out: IC50 for inhibition of cI; cited from earlier work"}, "HepG2 cells": {"test_system": "HepG2 cells", "design": "method as in van der Stel et al. 2020", "conditions": "ref van der Stel et al. 2020; cited from earlier work"}, "cII": {"test_system": "cII", "design": "method as in van der Stel et al. 2020", "conditions": "read-out: Concentration at which 50% inhibition was observed; HepG2 cells ref van der Stel et al. 2020; cited from earlier work"}},
  "data": [
    {"smiles": "CCCCCC[C@H]1C(=O)O[C@H](C)[C@H](NC(=O)c2cccc(NC=O)c2O)C(=O)O[C@@H](C)[C@@H]1OC(=O)CC(C)C", "note": "[Antimycin A]", "values": [
      {"measurement": "Reduction of neurite area in the NeuroGlycoTest", "setting": "LUHMES cells; highest non-cytotoxic concentration", "result": "more than 25%"},
      {"measurement": "Neurite MGE signal / proteostasis disturbance (in words)", "setting": "LUHMES cells; highest non-cytotoxic concentration (antimycin A 50 µM)", "result": "strong decrease"}
    ]},
    {"smiles": "COc1cc(CNC(=O)CCCC/C=C/C(C)C)ccc1O", "note": "[Capsaicin]", "values": [
      {"measurement": "IC50", "setting": "cI", "result": "> 200", "unit": "µM"}
    ]},
    {"smiles": "Cc1ccc(-c2c(Cl)nc(C#N)n2S(=O)(=O)N(C)C)cc1", "note": "[Cyazofamid]", "values": [
      {"measurement": "Mode of action found in HepG2 cells", "setting": "HepG2 cells", "result": "uncoupler"}
    ]},
    {"smiles": "Cc1ccccc1C(=O)Nc1cccc(OC(C)C)c1", "note": "[Mepronil]", "values": [
      {"measurement": "IC50", "setting": "cII", "result": "> 100", "unit": "µM"}
    ]}
  ]
}
